Data published in the NIST ThermoML archive (doi:10.1016/j.tca.2017.02.014).
Where “and” joins values, the source holds several entries; their conditions need not be identical. Equal entries are not always repeated. ± gives the expanded uncertainty stated by the source.

Assays:
[1] = Crystal; DTA
[2] = Molar enthalpy of transition or fusion; conditions: Crystal; DSC

Normal melting temperature [1] | Molar enthalpy of transition or fusion [2] | Structure (SMILES)
128.00 ± 0.5 °C and 127.50 ± 0.5 °C | 5.88 ± 0.263 kcal/mol | NC(=O)c1cccnc1 [3-pyridinecarboxamide]
94.20 ± 0.5 °C and 93.50 ± 0.5 °C | 7.29 ± 0.287 kcal/mol | CC(C(=O)O)c1cccc(C(=O)c2ccccc2)c1 (centres undefined) [ketoprofen]
